The numbers were not newly measured in publication PMC8597081, “Diphenylalanine Motif Drives Self‐Assembling in Hybrid PNA‐Peptide Conjugates” (Chemistry (Weinheim an Der Bergstrasse, Germany), 2021), which cites them from elsewhere.

Molecules are shown by their SMILES.

For the series the following is noted: N3-protonated cytosine; N7-protonated guanine. On the procedure:
Nevertheless, as it can be seen in the 1D spectra (Figure S12) even at 46.9 mM concentration, the absence of a signal at low field arising from the imino proton let speculate that guanine and cytosine are not paired.

On to `Nc1nc2nc[nH]c2c(=O)[nH]1` [guanine], for which the pKa was 1.9–2.2. Turning to `Nc1cc[nH]c(=O)n1` [cytosine], the pKa is reported as 4.2.

For orientation: pKa means the pH at which an ionisable group is half protonated.
